# Assay results reported in ChEMBL document CHEMBL5724914, “Linking interpersonal differences in gut microbiota composition and drug biotransformation activity” (2024).
# Assay: (§1) The drug is tested on Z-019 corresponding to rat gut metagenome with ENA study accession number: PRJEB37062 and ENA sample accession number: ERS12561818 for biotransformation under anaerobic condition. The drug concentrations were measured over 9 timepoints collected between 0 and 24 hours of incubation by liquid-chromatography-coupled mass spectrometry (LC–MS)
# Conditions: 2 µM
# Note: call rule not given here.
row,Bacterial Biotransformation,Structure (SMILES)
1,Compound NOT metabolized,Br.CN(C)CCCC1(c2ccc(F)cc2)OCc2cc(C#N)ccc21 (stereo not given) [CITALOPRAM HYDROBROMIDE]
2,Compound NOT metabolized,Cc1ccc(S(=O)(=O)NC(=O)NN2CC3CCCC3C2)cc1 (stereo not given) [GLICLAZIDE]

# Assay: as §1, with “on Z-017” for “on Z-019”, “to mouse” for “to rat”, “number: ERS12561816” for “number: ERS12561818”
# Conditions: 2 µM
row,Bacterial Biotransformation,Structure (SMILES)
1,Compound NOT metabolized,Br.CN(C)CCCC1(c2ccc(F)cc2)OCc2cc(C#N)ccc21 (stereo not given) [CITALOPRAM HYDROBROMIDE]
2,Compound NOT metabolized,Cc1ccc(S(=O)(=O)NC(=O)NN2CC3CCCC3C2)cc1 (stereo not given) [GLICLAZIDE]

# Assay: as §1, with “on Z-016” for “on Z-019”, “to mouse” for “to rat”, “number: ERS12561815” for “number: ERS12561818”
# Conditions: 2 µM
row,Bacterial Biotransformation,Structure (SMILES)
1,Compound NOT metabolized,Br.CN(C)CCCC1(c2ccc(F)cc2)OCc2cc(C#N)ccc21 (stereo not given) [CITALOPRAM HYDROBROMIDE]
2,Compound metabolized,Cc1ccc(S(=O)(=O)NC(=O)NN2CC3CCCC3C2)cc1 (stereo not given) [GLICLAZIDE]

# Assay: as §1, with “Z-014” for “Z-019”, “ERS12561814” for “ERS12561818”
# Conditions: 2 µM
row,Bacterial Biotransformation,Structure (SMILES)
1,Compound NOT metabolized,Br.CN(C)CCCC1(c2ccc(F)cc2)OCc2cc(C#N)ccc21 (stereo not given) [CITALOPRAM HYDROBROMIDE]
2,Compound NOT metabolized,Cc1ccc(S(=O)(=O)NC(=O)NN2CC3CCCC3C2)cc1 (stereo not given) [GLICLAZIDE]

# Assay: as §1, with “on Z-013” for “on Z-019”, “to rabbit” for “to rat”, “number: ERS12561813” for “number: ERS12561818”
# Conditions: 2 µM
row,Bacterial Biotransformation,Structure (SMILES)
1,Compound NOT metabolized,Br.CN(C)CCCC1(c2ccc(F)cc2)OCc2cc(C#N)ccc21 (stereo not given) [CITALOPRAM HYDROBROMIDE]
2,Compound NOT metabolized,Cc1ccc(S(=O)(=O)NC(=O)NN2CC3CCCC3C2)cc1 (stereo not given) [GLICLAZIDE]

# Assay: as §1, with “Z-008” for “Z-019”, “to” for “to rat gut”, “ERS12561808” for “ERS12561818”
# Conditions: 2 µM
row,Bacterial Biotransformation,Structure (SMILES)
1,Compound NOT metabolized,Br.CN(C)CCCC1(c2ccc(F)cc2)OCc2cc(C#N)ccc21 (stereo not given) [CITALOPRAM HYDROBROMIDE]
2,Compound NOT metabolized,Cc1ccc(S(=O)(=O)NC(=O)NN2CC3CCCC3C2)cc1 (stereo not given) [GLICLAZIDE]

# Assay: as §1, with “on WLS-310” for “on Z-019”, “to human” for “to rat”, “number: ERS12561785” for “number: ERS12561818”
# Conditions: 2 µM
row,Bacterial Biotransformation,Structure (SMILES)
1,Compound metabolized,Br.CN(C)CCCC1(c2ccc(F)cc2)OCc2cc(C#N)ccc21 (stereo not given) [CITALOPRAM HYDROBROMIDE]
2,Compound metabolized,Cc1ccc(S(=O)(=O)NC(=O)NN2CC3CCCC3C2)cc1 (stereo not given) [GLICLAZIDE]

# Assay: as §1, with “on WLS-220” for “on Z-019”, “to human” for “to rat”, “number: ERS12561769” for “number: ERS12561818”
# Conditions: 2 µM
row,Bacterial Biotransformation,Structure (SMILES)
1,Compound NOT metabolized,Br.CN(C)CCCC1(c2ccc(F)cc2)OCc2cc(C#N)ccc21 (stereo not given) [CITALOPRAM HYDROBROMIDE]
2,Compound metabolized,Cc1ccc(S(=O)(=O)NC(=O)NN2CC3CCCC3C2)cc1 (stereo not given) [GLICLAZIDE]

# Assay: as §1, with “on WLS-086” for “on Z-019”, “to human” for “to rat”, “number: ERS12561752” for “number: ERS12561818”
# Conditions: 2 µM
row,Bacterial Biotransformation,Structure (SMILES)
1,Compound metabolized,Br.CN(C)CCCC1(c2ccc(F)cc2)OCc2cc(C#N)ccc21 (stereo not given) [CITALOPRAM HYDROBROMIDE]
2,Compound metabolized,Cc1ccc(S(=O)(=O)NC(=O)NN2CC3CCCC3C2)cc1 (stereo not given) [GLICLAZIDE]

# Assay: as §1, with “on WLS-073” for “on Z-019”, “to human” for “to rat”, “number: ERS12561749” for “number: ERS12561818”
# Conditions: 2 µM
row,Bacterial Biotransformation,Structure (SMILES)
1,Compound NOT metabolized,Br.CN(C)CCCC1(c2ccc(F)cc2)OCc2cc(C#N)ccc21 (stereo not given) [CITALOPRAM HYDROBROMIDE]
2,Compound metabolized,Cc1ccc(S(=O)(=O)NC(=O)NN2CC3CCCC3C2)cc1 (stereo not given) [GLICLAZIDE]

# Assay: as §1, with “on WLS-038” for “on Z-019”, “to human” for “to rat”, “number: ERS12561745” for “number: ERS12561818”
# Conditions: 2 µM
row,Bacterial Biotransformation,Structure (SMILES)
1,Compound NOT metabolized,Br.CN(C)CCCC1(c2ccc(F)cc2)OCc2cc(C#N)ccc21 (stereo not given) [CITALOPRAM HYDROBROMIDE]
2,Compound metabolized,Cc1ccc(S(=O)(=O)NC(=O)NN2CC3CCCC3C2)cc1 (stereo not given) [GLICLAZIDE]

# Assay: as §1, with “on WLS-007” for “on Z-019”, “to human” for “to rat”, “number: ERS12561742” for “number: ERS12561818”
# Conditions: 2 µM
row,Bacterial Biotransformation,Structure (SMILES)
1,Compound NOT metabolized,Br.CN(C)CCCC1(c2ccc(F)cc2)OCc2cc(C#N)ccc21 (stereo not given) [CITALOPRAM HYDROBROMIDE]
2,Compound NOT metabolized,Cc1ccc(S(=O)(=O)NC(=O)NN2CC3CCCC3C2)cc1 (stereo not given) [GLICLAZIDE]

# Conditions: human gut metagenome, 24 h, 2 µM
row,Bacterial Biotransformation,Structure (SMILES)
1,Compound NOT metabolized,Br.CN(C)CCCC1(c2ccc(F)cc2)OCc2cc(C#N)ccc21 (stereo not given) [CITALOPRAM HYDROBROMIDE]
2,Compound metabolized,Cc1ccc(S(=O)(=O)NC(=O)NN2CC3CCCC3C2)cc1 (stereo not given) [GLICLAZIDE]

# Conditions: human gut metagenome, 24 h, 2 µM
# Remark: another data set of the same source
row,Bacterial Biotransformation,Structure (SMILES)
1,Compound NOT metabolized,Br.CN(C)CCCC1(c2ccc(F)cc2)OCc2cc(C#N)ccc21 (stereo not given) [CITALOPRAM HYDROBROMIDE]
2,Compound metabolized,Cc1ccc(S(=O)(=O)NC(=O)NN2CC3CCCC3C2)cc1 (stereo not given) [GLICLAZIDE]

# Conditions: human gut metagenome, 24 h, 2 µM
# Remark: another data set of the same source
row,Bacterial Biotransformation,Structure (SMILES)
1,Compound metabolized,Br.CN(C)CCCC1(c2ccc(F)cc2)OCc2cc(C#N)ccc21 (stereo not given) [CITALOPRAM HYDROBROMIDE]
2,Compound metabolized,Cc1ccc(S(=O)(=O)NC(=O)NN2CC3CCCC3C2)cc1 (stereo not given) [GLICLAZIDE]

# Conditions: human gut metagenome, 24 h, 2 µM
# Remark: another data set of the same source
row,Bacterial Biotransformation,Structure (SMILES)
1,Compound NOT metabolized,Br.CN(C)CCCC1(c2ccc(F)cc2)OCc2cc(C#N)ccc21 (stereo not given) [CITALOPRAM HYDROBROMIDE]
2,Compound metabolized,Cc1ccc(S(=O)(=O)NC(=O)NN2CC3CCCC3C2)cc1 (stereo not given) [GLICLAZIDE]

# Conditions: human gut metagenome, 24 h, 2 µM
# Remark: another data set of the same source
row,Bacterial Biotransformation,Structure (SMILES)
1,Compound NOT metabolized,Br.CN(C)CCCC1(c2ccc(F)cc2)OCc2cc(C#N)ccc21 (stereo not given) [CITALOPRAM HYDROBROMIDE]
2,Compound metabolized,Cc1ccc(S(=O)(=O)NC(=O)NN2CC3CCCC3C2)cc1 (stereo not given) [GLICLAZIDE]

# Conditions: human gut metagenome, 24 h, 2 µM
# Remark: another data set of the same source
row,Bacterial Biotransformation,Structure (SMILES)
1,Compound NOT metabolized,Br.CN(C)CCCC1(c2ccc(F)cc2)OCc2cc(C#N)ccc21 (stereo not given) [CITALOPRAM HYDROBROMIDE]
2,Compound NOT metabolized,Cc1ccc(S(=O)(=O)NC(=O)NN2CC3CCCC3C2)cc1 (stereo not given) [GLICLAZIDE]

# Conditions: human gut metagenome, 24 h, 2 µM
# Remark: another data set of the same source
row,Bacterial Biotransformation,Structure (SMILES)
1,Compound metabolized,Br.CN(C)CCCC1(c2ccc(F)cc2)OCc2cc(C#N)ccc21 (stereo not given) [CITALOPRAM HYDROBROMIDE]
2,Compound metabolized,Cc1ccc(S(=O)(=O)NC(=O)NN2CC3CCCC3C2)cc1 (stereo not given) [GLICLAZIDE]

# Conditions: human gut metagenome, 24 h, 2 µM
# Remark: another data set of the same source
row,Bacterial Biotransformation,Structure (SMILES)
1,Compound metabolized,Br.CN(C)CCCC1(c2ccc(F)cc2)OCc2cc(C#N)ccc21 (stereo not given) [CITALOPRAM HYDROBROMIDE]
2,Compound metabolized,Cc1ccc(S(=O)(=O)NC(=O)NN2CC3CCCC3C2)cc1 (stereo not given) [GLICLAZIDE]
